Usually inhibition stands for the drop in the measured response relative to a control, in per cent.

Where a SMILES comes first, the peptide text is derived from it. [ ]: non-standard residue; d: D form. Arg(Me) = CNC(=N)NCCC[C@H](N)C(=O)O; d4Pal = N[C@H](Cc1ccncc1)C(=O)O; azaGly = NNC(=O)O

This passage reports inhibition results from ChEMBL document CHEMBL5665443, “Enzyme Inhibitor Single Concentration assay results for EUbOPEN Chemogenomics Library” (2024).

Details in all cases: Compound Concentration 10.0 uM, Hit No
Assay [1] deals with Endonuclease 8-like 1 (Homo sapiens) (UniProt Q96FI4).
Chain of Endonuclease 8-like 1 (Homo sapiens) (Q96FI4 whole entry): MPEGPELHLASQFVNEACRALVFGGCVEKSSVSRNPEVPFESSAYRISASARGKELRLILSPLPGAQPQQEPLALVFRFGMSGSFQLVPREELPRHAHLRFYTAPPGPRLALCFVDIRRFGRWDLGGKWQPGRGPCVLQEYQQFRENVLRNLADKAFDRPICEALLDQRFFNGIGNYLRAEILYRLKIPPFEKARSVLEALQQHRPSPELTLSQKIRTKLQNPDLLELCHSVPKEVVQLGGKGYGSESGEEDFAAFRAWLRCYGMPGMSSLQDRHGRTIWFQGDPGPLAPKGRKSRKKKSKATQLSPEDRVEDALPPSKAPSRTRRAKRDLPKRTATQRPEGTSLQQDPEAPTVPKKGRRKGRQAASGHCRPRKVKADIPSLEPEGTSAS
Description: Inhibition of NEIL1 by quantifying inhibition of NEIL1-mediated cleavage and dissociation of quenched duplex DNA oligonucleotides, measured as fluorescence at 594 nm.
Assay [2] deals with Uracil-DNA glycosylase (Homo sapiens) (UniProt P13051).
Chain of Uracil-DNA glycosylase (Homo sapiens) (P13051 whole entry): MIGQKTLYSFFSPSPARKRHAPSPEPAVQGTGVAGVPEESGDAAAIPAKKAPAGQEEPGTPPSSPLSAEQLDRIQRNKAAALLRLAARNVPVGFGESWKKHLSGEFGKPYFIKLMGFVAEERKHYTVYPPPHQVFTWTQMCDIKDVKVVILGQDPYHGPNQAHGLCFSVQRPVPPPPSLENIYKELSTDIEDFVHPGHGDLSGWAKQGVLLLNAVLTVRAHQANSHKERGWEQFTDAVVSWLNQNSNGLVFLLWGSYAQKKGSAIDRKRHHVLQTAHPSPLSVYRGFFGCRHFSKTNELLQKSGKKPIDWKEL
Description: Inhibition of UNG by quantifying inhibition of UNG-mediated cleavage and dissociation of quenched duplex DNA oligonucleotides, measured as fluorescence at 594 nm. To generate a functional strand incision and increase turn-over this assay is coupled to APE1.
In assay [3] the target is T1, Endonuclease III-like protein 1 (Homo sapiens) (UniProt P78549).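 Note: enzyme assay tracking NTHL1 cutting and release of a quenched double-stranded DNA oligo substrate, read as fluorescence at 594 nm.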
T1 sequence (whole entry): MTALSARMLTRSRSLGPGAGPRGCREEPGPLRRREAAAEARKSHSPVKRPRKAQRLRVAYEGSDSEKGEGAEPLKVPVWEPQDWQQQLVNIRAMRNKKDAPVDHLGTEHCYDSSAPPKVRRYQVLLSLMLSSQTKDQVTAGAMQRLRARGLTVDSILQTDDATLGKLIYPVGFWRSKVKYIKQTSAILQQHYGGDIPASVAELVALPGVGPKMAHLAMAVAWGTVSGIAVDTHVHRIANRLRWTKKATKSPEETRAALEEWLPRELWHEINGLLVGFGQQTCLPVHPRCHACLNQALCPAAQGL
Description: Inhibition of NTHL1 by quantifying inhibition of NTHL1-mediated cleavage and dissociation of quenched duplex DNA oligonucleotides, measured as fluorescence at 594 nm.

The target of assay [4] is T2, Single-strand selective monofunctional uracil DNA glycosylase (Homo sapiens) (UniProt Q53HV7).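 Note: enzymatic SMUG1 assay coupled with APE1, reading fluorescence at 594 nm released when a quenched double-stranded DNA oligonucleotide substrate is cleaved and separated.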
T2 sequence (whole entry): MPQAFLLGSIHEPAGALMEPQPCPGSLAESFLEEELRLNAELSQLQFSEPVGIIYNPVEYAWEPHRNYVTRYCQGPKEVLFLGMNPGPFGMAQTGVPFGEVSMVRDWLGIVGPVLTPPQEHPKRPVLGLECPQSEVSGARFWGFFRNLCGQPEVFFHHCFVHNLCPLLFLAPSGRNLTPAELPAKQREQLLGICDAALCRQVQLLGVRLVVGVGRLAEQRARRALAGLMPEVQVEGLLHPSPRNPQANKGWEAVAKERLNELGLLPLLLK
Description: Inhibition of SMUG1 by quantifying inhibition of SMUG1-mediated cleavage and dissociation of quenched duplex DNA oligonucleotides, measured as fluorescence at 594 nm. To generate a functional strand incision and increase turn-over this assay is coupled to APE1.

For assay [5], the target named is Methyl-CpG-binding domain protein 4 (Homo sapiens) (UniProt O95243).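 Note: MBD4 activity read as fluorescence at 594 nm from cleavage and release of a quenched duplex DNA oligonucleotide, with APE1 coupled to incise the strand and raise turnover.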
Chain of Methyl-CpG-binding domain protein 4 (Homo sapiens) (O95243 whole entry, the tested form may be a part): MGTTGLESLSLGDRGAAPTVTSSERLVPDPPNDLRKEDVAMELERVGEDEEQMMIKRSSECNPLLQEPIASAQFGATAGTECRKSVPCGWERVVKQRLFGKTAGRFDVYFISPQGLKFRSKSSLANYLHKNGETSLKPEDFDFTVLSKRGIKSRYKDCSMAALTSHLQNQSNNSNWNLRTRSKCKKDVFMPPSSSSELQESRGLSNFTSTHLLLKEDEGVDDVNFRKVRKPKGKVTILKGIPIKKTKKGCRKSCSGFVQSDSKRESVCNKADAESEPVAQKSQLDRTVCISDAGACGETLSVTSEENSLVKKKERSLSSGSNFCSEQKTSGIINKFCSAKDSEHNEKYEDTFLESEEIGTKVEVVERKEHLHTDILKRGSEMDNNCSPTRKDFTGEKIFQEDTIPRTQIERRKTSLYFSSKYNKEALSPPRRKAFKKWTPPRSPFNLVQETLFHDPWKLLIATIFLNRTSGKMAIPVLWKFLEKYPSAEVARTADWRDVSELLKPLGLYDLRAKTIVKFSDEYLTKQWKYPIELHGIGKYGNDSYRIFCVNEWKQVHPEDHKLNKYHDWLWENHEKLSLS
Description: Inhibition of MBD4 by quantifying inhibition of MBD4-mediated cleavage and dissociation of quenched duplex DNA oligonucleotides, measured as fluorescence at 594 nm. To generate a functional strand incision and increase turn-over this assay is coupled to APE1.
For assay [6], the target named is N-glycosylase/DNA lyase (Homo sapiens) (UniProt O15527).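 Note: OGG1 cleavage of a quenched duplex DNA oligonucleotide, coupled to APE1 for strand incision, read as fluorescence at 594 nm.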
Chain of N-glycosylase/DNA lyase (Homo sapiens) (O15527 whole entry): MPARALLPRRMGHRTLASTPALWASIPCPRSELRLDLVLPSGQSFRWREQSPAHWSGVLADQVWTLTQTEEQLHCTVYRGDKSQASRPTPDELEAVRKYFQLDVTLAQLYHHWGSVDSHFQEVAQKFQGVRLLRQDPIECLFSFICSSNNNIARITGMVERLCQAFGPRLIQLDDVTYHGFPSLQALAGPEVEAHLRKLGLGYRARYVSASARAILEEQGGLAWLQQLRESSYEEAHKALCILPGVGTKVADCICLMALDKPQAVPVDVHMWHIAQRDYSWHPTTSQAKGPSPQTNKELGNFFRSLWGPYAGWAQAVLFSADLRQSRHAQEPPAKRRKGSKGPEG
Description: Inhibition of OGG1 by quantifying inhibition of OGG1-mediated cleavage and dissociation of quenched duplex DNA oligonucleotides, measured as fluorescence at 594 nm. To generate a functional strand incision and increase turn-over this assay is coupled to APE1.
Assay [7] has as its target G/T mismatch-specific thymine DNA glycosylase (Homo sapiens) (UniProt Q13569).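 Note: human TDG cleavage of quenched duplex DNA oligonucleotides coupled to APE1, strand release read as fluorescence at 594 nm, inhibition of TDG activity.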
Description: Inhibition of TDG by quantifying inhibition of TDG-mediated cleavage and dissociation of quenched duplex DNA oligonucleotides, measured as fluorescence at 594 nm. To generate a functional strand incision and increase turn-over this assay is coupled to APE1.
The target of assay [8] is T3, Endonuclease 8-like 2 (Homo sapiens) (UniProt Q969S2).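 Note: fluorescence at 594 nm reports NEIL2 cutting and release of a quenched double-stranded DNA oligo substrate, reduced signal read as inhibition.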
T3 sequence (whole entry): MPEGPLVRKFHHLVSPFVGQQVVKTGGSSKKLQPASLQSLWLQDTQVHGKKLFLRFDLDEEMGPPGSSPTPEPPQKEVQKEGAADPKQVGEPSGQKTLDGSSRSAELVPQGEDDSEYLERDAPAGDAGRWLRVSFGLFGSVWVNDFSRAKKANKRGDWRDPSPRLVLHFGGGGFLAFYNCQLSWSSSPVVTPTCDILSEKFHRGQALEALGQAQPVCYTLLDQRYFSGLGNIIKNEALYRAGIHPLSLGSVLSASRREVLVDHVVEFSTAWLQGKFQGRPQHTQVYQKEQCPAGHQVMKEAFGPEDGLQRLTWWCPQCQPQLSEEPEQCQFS
Description: Inhibition of NEIL2 by quantifying inhibition of NEIL2-mediated cleavage and dissociation of quenched duplex DNA oligonucleotides, measured as fluorescence at 594 nm.

Chain of G/T mismatch-specific thymine DNA glycosylase (Homo sapiens) (Q13569 whole entry): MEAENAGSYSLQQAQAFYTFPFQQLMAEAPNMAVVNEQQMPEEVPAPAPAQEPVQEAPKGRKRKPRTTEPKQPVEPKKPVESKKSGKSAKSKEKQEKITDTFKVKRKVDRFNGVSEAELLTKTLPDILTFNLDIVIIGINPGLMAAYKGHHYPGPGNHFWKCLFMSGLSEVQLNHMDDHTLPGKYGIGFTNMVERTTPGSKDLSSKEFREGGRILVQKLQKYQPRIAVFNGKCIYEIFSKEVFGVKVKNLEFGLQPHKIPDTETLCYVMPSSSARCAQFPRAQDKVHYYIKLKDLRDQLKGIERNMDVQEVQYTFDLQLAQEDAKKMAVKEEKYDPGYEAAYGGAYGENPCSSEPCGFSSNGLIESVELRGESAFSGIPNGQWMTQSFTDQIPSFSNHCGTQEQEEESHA

Take `Cn1cc(-c2ccc3occ(-c4ccccc4-c4ccccc4)c3n2)cn1`: the inhibition in assay [1] was 6.35%; in assay [2], 0.982%; in assay [3], -8.28%; in assay [4], 17.5%; in assay [5], -2.48%; in assay [6] it was -7.06%. For the same compound, the inhibition was found to be 33.2% in assay [7] and 1.31% in assay [8].

`CNC(=N)NCCC[C@H](NC(=O)[C@H](CC(C)C)NC(=O)NNC(=O)[C@H](Cc1ccccc1)NC(=O)[C@H](CO)NC(=O)[C@H](CC(N)=O)NC(=O)[C@@H](Cc1ccncc1)NC(=O)[C@H](N)Cc1ccc(O)cc1)C(=O)N[C@@H](Cc1ccccc1)C(N)=O` (H-[dY][d4Pal]NSF[azaGly]L[Arg(Me)]F-NH2): the inhibition in assay [1] was -4.68%; in assay [2] it was 6.61%; in assay [3] it was -1.29%; in assay [4], 19.5%; in assay [5], 54%; in assay [6] it was -3.16%. For the same compound, the inhibition in assay [7] is 52.5%; in assay [8] it was 6.4%.

As to `Cc1c(NC(=O)c2cc(C(N)=O)nc3cc(F)ccc23)c(C(F)(F)F)nn1Cc1ccc(C#N)cc1`, the inhibition was -9.07% in assay [1]; 1.44% in assay [2]; -9.83% in assay [3]; 19.9% in assay [4]; 51.7% in assay [5]; 3.97% in assay [6]. The inhibition in assay [7] came out at 35.6%; in assay [8], 8.19%.

`CNC(=O)c1cc(C(=O)N[C@H]2[C@@H]3COC[C@@H]32)cc2c1O[C@H](CF)[C@H]2c1ccccc1`: the inhibition in assay [1] was -1.35%; in assay [2], 2.78%; in assay [3], -3.26%; in assay [4] it was 8.89%; in assay [5] it was 47.2%; in assay [6] it was 4.16%. Besides, the inhibition in assay [7] came out at 40.6%; in assay [8] it was 5.12%.

For `COc1ccc(CC[C@@H](OC(=O)[C@H]2CCCCN2C(=O)[C@@H](c2cc(OC)c(OC)c(OC)c2)C2CCCCC2)c2cccc(OCCN3CCOCC3)c2)cc1OC`, the inhibition is -4.53% in assay [1]; 9.57% in assay [2]; 0.685% in assay [3]; 19.6% in assay [4]; 63.9% in assay [5]; -1.2% in assay [6]. Further, the results for the inhibition in assay [7] and in assay [8] were 97% and 4.61%, respectively.

Turning to `CCCCOCCOc1nc(-c2ccc(C(=O)O)c(F)c2)sc1C`, the inhibition in assay [1] was 6.68%; in assay [2], 1.01%; in assay [3], -1.29%; in assay [4] it was 18.1%; in assay [5], 64.4%; in assay [6] it was 14.4%. The inhibition in assay [7] is 46.5%; in assay [8] it was 6.14%.

Take `CC(=O)Nc1ccc(-c2cc(-c3ccccc3)nc3cc(C(=O)NCCCn4ccnc4)nn23)cc1`: the inhibition was -3.92% in assay [1]; 5.92% in assay [2]; 3.31% in assay [3]; 10.4% in assay [4]; 52.7% in assay [5]; -1.79% in assay [6]. Further, the inhibition in assay [7] was 38.6%; in assay [8] it was -6.36%.

Turning to `C[C@H](NC(=O)Cc1ccc(-c2ccc3cccnc3n2)cc1)c1ccc(-c2ccc(F)c(C(F)(F)F)c2)cc1`, the inhibition is 7.12% in assay [1]; -4.78% in assay [2]; 14.6% in assay [3]; -7.59% in assay [4]; 22.6% in assay [5]; 5.81% in assay [6]. Further, the inhibition is 8.35% in assay [7] and -4.68% in assay [8].
